Data on 14 compounds can be found in EP0903343A1, “Alpha-Substituted phenylpropionic acid derivative and medicine containing the same” (SSP Co., Ltd., priority 1997, dated 1999).

The subject of one assay is db/db Mice. Kind of assay: Antidiabetic effect on diabetic model mice (blood glucose lowering). The note with it: Mus musculus, po, 10 mg/kg/day orally once a day for 4 days, blood glucose 18 to 24 hours after final administration, vs control group, read-out: Percent reduction (%) of blood glucose. In kind it is in vivo. The method, then:
The α-substituted phenylpropionic acid derivatives (1) according to the present invention were used to conduct a test for evaluating their activities against model mice suffering from non-insulin dependent diabetes mellitus (NIDDM). Incidentally, pioglitazone was used as a comparative compound.
db/db Mice (Crea Co.; preliminarily rearing male mice aged 7 to 9 weeks for a week and using 4 or 5 mice having a blood glucose level of at least 300 mg/dl as a group) were used as subject animals. A predetermined amount of each of the compounds according to the present invention or the comparative compound was orally administered to the mice for 4 days once a day with the compound suspended in a 0.5% aqueous solution of sodium carboxymethyl cellulose. At 18 to 24 hours after the final administration, blood was collected from each of the subject animals to determine its blood glucose level (found value) by means of a simplified blood glucose meter, Mediace (manufactured by Terumo Corporation). On the other hand, the blood glucose level of a group of mice (control group) to which only a 0.5% aqueous solution of sodium carboxymethyl cellulose had been administered was also determined (control value).
On the basis of the thus-determined blood glucose level as to each of the compounds according to the present invention and the comparative compound, percent reduction of blood glucose was calculated out in accordance with the following equation. Percent reduction (%) = [(Control value - Found value)/(Control value)] x 100 [formula]
Take `CCOC(Cc1ccc(OCCn2nc(C)c3ccccc3c2=O)cc1)C(=O)O` (stereo not drawn) [Compound 1BC]: the inhibition in vivo at 10 mg/kg/day was found to be 50%.

The assay is the same for the next values; noted with them: Mus musculus, po, 20 mg/kg/day orally once a day for 4 days, blood glucose 18 to 24 hours after final administration, vs control group, read-out: Percent reduction (%) of blood glucose.
Consider `CCOC(Cc1ccc(OCCn2ncc3ccccc3c2=O)cc1)C(=O)NO` (stereo not drawn) [Compound 1AA, 2-ethoxy-3-{4-[2-(1-oxo-1,2-dihydrophthalazin-2-yl)ethoxy]phenyl}propanohydroxamic acid], for which the inhibition in vivo at 20 mg/kg/day was 48%.

On to `CCOC(Cc1ccc(OCCn2c(=O)c3ccc(C(F)(F)F)cc3n(C)c2=O)cc1)C(=O)O` (stereo not drawn) [Compound 1AR], for which the inhibition in vivo at 20 mg/kg/day turned out to be 38%.

Regarding `CCOC(Cc1ccc(OCCn2ncc3ccccc3c2=O)cc1)C(=O)O` (stereo not drawn) [Compound 1B, 2-ethoxy-3-{4-[2-(1-oxo-1,2-dihydrophthalazin-2-yl)ethoxy]phenyl}propanoic acid], the inhibition in vivo at 20 mg/kg/day is 43%.

For `CCOC(=O)C(Cc1ccc(OCCn2nc(C)c3ccccc3c2=O)cc1)OCC` (stereo not drawn) [Compound 1BI, ethyl 2-ethoxy-3-{4-[2-(4-methyl-1-oxo-1,2-dihydrophthalazin-2-yl)ethoxy]phenyl}propanoate], the inhibition in vivo at 20 mg/kg/day was found to be 52%.

Consider `CCOC(Cc1ccc(OCCn2ccc3ccccc3c2=O)cc1)C(=O)O` (stereo not drawn) [Compound 1BS], for which the inhibition in vivo at 20 mg/kg/day stood at 60%.

With `CCOC(Cc1ccc(OCCN2COc3ccccc3C2=O)cc1)C(N)=O` (stereo not drawn) [Compound 1J], the inhibition in vivo at 20 mg/kg/day is 73%.

`CCc1ccc(CCOc2ccc(CC3SC(=O)NC3=O)cc2)nc1` (stereo not drawn) [Pioglitazone, pioglitazone, reference compound]: the inhibition in vivo at 20 mg/kg/day was determined as 26%.

Still in this assay, the particulars now being: Mus musculus, po, 50 mg/kg/day orally once a day for 4 days, blood glucose 18 to 24 hours after final administration, vs control group, read-out: Percent reduction (%) of blood glucose.
As for `CCOC(Cc1ccc(OCCn2ncc3ccccc3c2=O)cc1)C(N)=O` (stereo not drawn) [Compound 1A, 2-ethoxy-3-{4-[2-(1-oxo-1,2-dihydrophthalazin-2-yl)ethoxy]phenyl}propanamide], the inhibition in vivo at 50 mg/kg/day is 73%.

As for `CCOC(Cc1ccc(OCCN2COc3ccccc3C2=O)cc1)C(=O)O` (stereo not drawn) [Compound 1K], the inhibition in vivo at 50 mg/kg/day was found to be 69%.

For `CC(C)OC(Cc1ccc(OCCN2COc3ccccc3C2=O)cc1)C(N)=O` (stereo not drawn) [Compound 1N], the inhibition in vivo at 50 mg/kg/day came to 72%.

As for `CCSC(Cc1ccc(OCCN2COc3ccccc3C2=O)cc1)C(=O)O` (stereo not drawn) [Compound 1O, 2-ethylthio-3-{4-[2-(4-oxo-3,4-dihydro-2H-1,3-benzoxazin-3-yl)ethoxy]phenyl}propanoic acid], the inhibition in vivo at 50 mg/kg/day came to 42%.

With `COC(Cc1ccc(OCCN2COc3ccccc3C2=O)cc1)C(N)=O` (stereo not drawn) [Compound 1P, 2-methoxy-3-{4-[2-(4-oxo-3,4-dihydro-2H-1,3-benzoxazin-3-yl)ethoxy]phenyl}propanamide], the inhibition in vivo at 50 mg/kg/day was 66%.

For the compound `CCOC(Cc1ccc(CCn2cnc3ccccc3c2=O)cc1)C(N)=O` (stereo not drawn) [Compound 1Q, 2-ethoxy-3-{4-[2-(4-oxo-3,4-dihydroquinazolin-3-yl)ethyl]phenyl}propanamide], the inhibition in vivo at 50 mg/kg/day came out at 49%.

For the compound `CCc1ccc(CCOc2ccc(CC3SC(=O)NC3=O)cc2)nc1` (stereo not drawn) [Pioglitazone, pioglitazone, reference compound], the inhibition in vivo at 50 mg/kg/day was found to be 44%.
